# From patent US8436159B2, “Glyphosate resistant class I 5-endolpyruvylshikimate-3-phosphate synthase (EPSPS)” (Monsanto Technology LLC, priority 2003, dated 2013)
# Positions count from the first letter of the chain named.
# Legend:
# E. coli EPSPS, native = conditions: native enzyme; read-out: apparent Ki for glyphosate; cited from earlier work
# [1] = target: T1, maize (Zea mays) class I EPSPS variant TIPM (T102I, P106M), pMON42484 (Zea mays, UniProt O24566, P106M/T102I); test: EPSPS steady-state kinetics, TIPM variant; assay type: biochemical
# T1 construct: pMON42484
# T1 sequence (O24566 1-444 T102I/P106M): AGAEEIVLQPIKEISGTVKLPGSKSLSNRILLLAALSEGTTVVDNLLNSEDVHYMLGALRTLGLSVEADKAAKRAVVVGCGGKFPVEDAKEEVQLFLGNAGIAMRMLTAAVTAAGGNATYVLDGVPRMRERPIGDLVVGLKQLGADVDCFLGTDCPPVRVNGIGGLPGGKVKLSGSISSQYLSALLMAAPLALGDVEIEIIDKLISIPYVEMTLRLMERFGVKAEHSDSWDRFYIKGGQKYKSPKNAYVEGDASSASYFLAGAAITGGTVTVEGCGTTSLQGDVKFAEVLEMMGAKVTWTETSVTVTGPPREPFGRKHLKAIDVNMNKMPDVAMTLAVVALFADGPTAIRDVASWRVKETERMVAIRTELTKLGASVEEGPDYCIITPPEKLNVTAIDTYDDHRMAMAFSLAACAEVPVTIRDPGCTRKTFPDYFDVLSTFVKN
# Text: (§1) The double variants of the present invention were made using pMON58452 (FIG. 5) as the template. This pMON58452 EPSPS gene template contains the maize EPSPS double variant T102I, P106T (TIPT) that was constructed by mutagenesis of pMON70467 with the mutagenesis primers mEmut-9-U and mEmut-10-L. The various mutagenesis primer sequences were designed and then were synthesized by Invitrogen Corp., Custom Primers and used in combination in a PCR to create the variant EPSPS coding sequences. The PCR was set up in a 50 μl reaction in the following manner: dH2O 38 μl; 2 mM dNTP 1 μL; 10× buffer 5 μL; pMON58452 1 μL (10 ng); primer-U 2 μL; primer-L 2 μL; pfu Turbo enzyme 1 μL. PCR was carried out on a MJ Research PTC-200 thermal cycler using the following program: Step 1—94° C. for 30 seconds; Step 2—94° C. for 30 seconds; Step 3—55° C. for 1 minute; Step 4—68° C. for 14 minute; Step 5—go to step 2, 16 times; Step 6—End. At the end of the PCR, 1 μl of the restriction enzyme DpnI was added to each 50 μl of PCR reaction and the mixture was incubated at 37° C. for 1 hour. […]
# [2] = target: T2, maize (Zea mays) class I EPSPS variant TIPI (T102I, P106I), pMON42486 (Zea mays, UniProt O24566, P106I/T102I); test: EPSPS steady-state kinetics, TIPI variant; assay type: biochemical
# T2 construct: pMON42486
# T2 sequence (O24566 1-444 T102I/P106I): T1 sequence (O24566 1-444 T102I/P106M) with M106I
# Text: as §1
smiles,measurement,setting,value
"O=C(O)CNCP(=O)(O)O [glyphosate, N-phosphonomethylglycine]",Ki,"E. coli EPSPS, native",0.5 µM
same,Ki,[1],37200 ± 1500 µM
same,Ki,[2],2500 ± 900 µM
